Where two headings read alike, the source gives them in different places.
What was measured:
[1] = assay type: in vivo, Dutch Belted rabbits; conditions: for Cmax / Tmax: 4 mg; for AUC(0-t): DB rabbits, 91 days
[2] = assay type: in vivo, Dutch Belted rabbits; conditions: for Tmax / Cmax / half-life: Dutch Belted, rabbit, sc; for AUC(0-t): DB rabbits
[3] = assay type: in vivo, New Zealand White rabbits; conditions: for Plasma concentration / AUC(0-t): 1 mg/eye; for Plasma concentration: below LOQ; for Cmax / Tmax: New Zealand White, rabbit, 1 mg; for AUC(0-t): NZW rabbits
[4] = assay type: in vivo, rabbits; conditions: rabbit, RCS, sc, 1.05 mg/eye
[5] = Dutch Belted, rabbit, RPE-choroid-sclera complex (RCS), sc
[6] = Dutch Belted, rabbit, vitreous humor, sc
[7] = SC, 4 mg/eye, throughout 91-day study, not detected/quantifiable, LOQ
[8] = RPE-choroid-sclera complex (RCS), 0.03 mg
[9] = RPE-choroid-sclera complex (RCS), 0.1 mg
[10] = SC, 0.03 and 0.10 mg/eye, 10-week study
[11] = SC, 0.03 and 0.1 mg/eye, any timepoint, not quantifiable, LOQ
[12] = vitreous humor, topical or ocular

What does the source list for `CNC(=O)c1ccccc1Sc1ccc2c(/C=C/c3ccccn3)n[nH]c2c1` [Axitinib]?
Cmax [1, 5]: 2.2e+07 ng/g; Tmax [1, 5]: 96 h; half-life ([1]; Dutch Belted, rabbit, RPE-choroid-sclera complex (RCS), sc, 4 mg/eye): 143 days; Cmax ([1]; Dutch Belted, rabbit, retina, sc): 325000 ng/g; concentration at 91 day ([1]; Dutch Belted, rabbit, retina, sc, 4 mg/eye): 305000 ng/g; Cmax [1, 6]: 858 ng/mL; Tmax [1, 6]: 96 h; AUC(0-t) ([1]; RCS (RPE-choroid-sclera, dose depot), SC, 4 mg/eye): 1,260,000 µg·d/g; Aqueous humor concentration [1, 7]: < 1 ng/mL; Plasma concentration [1, 7]: < 0.15 ng/mL; Vitreous humor level lower than that of RCS and retina ([1]; SC, 4 mg/eye, density of vitreous humor assumed 1): 3 to 4 log orders; AUC(0-t) ([1]; vitreous humor, SC, 4 mg/eye): 31.1 µg·d/g or µg*d/mL; Tmax ([2]; RPE-choroid-sclera complex (RCS)): 24 h; Cmax [2, 8]: 37200 ng/g; Tmax [2, 8]: 24 h; half-life [2, 8]: 264 h; Cmax [2, 9]: 232000 ng/g; Tmax [2, 9]: 24 h; half-life [2, 9]: 384 h; Cmax ([2]; retina, 0.03 mg): 4480 ng/g; Tmax ([2]; retina, 0.03 mg): 24 h; Cmax ([2]; retina, 0.1 mg): 6260 ng/g; Tmax ([2]; retina, 0.1 mg): 24 h; Cmax ([2]; vitreous humor, 0.03 mg): 4.01 ng/mL; Tmax ([2]; vitreous humor, 0.03 mg): 24 h; Cmax ([2]; vitreous humor, 0.1 mg): 4.58 ng/mL; Tmax ([2]; vitreous humor, 0.1 mg): 24 h; AUC(0-t) ([2]; RCS, SC, 0.03 mg/eye): 338 µg·days/g; AUC(0-t) ([2]; RCS, SC, 0.1 mg/eye): 2320 µg·days/g; Mean AUC0-∞ after 0.10 mg dose versus 0.03 mg dose ([2]; RCS, SC, dose ratio 3.33): ~7 fold; Mean Cmax after 0.10 mg dose versus 0.03 mg dose ([2]; RCS, SC, dose ratio 3.33): approximately 6 fold; RCS (dose depot) level higher than retina [2, 10]: 1 to 2 orders of magnitude; Retina level higher than vitreous humor [2, 10]: 3 to 4 orders of magnitude; Aqueous humor concentration [2, 11]: < 1 ng/mL; Plasma concentration [2, 11]: < 0.15 ng/mL; AUC(0-t) ([2]; retina, SC, 0.03 mg/eye): 17.3 µg·days/g; AUC(0-t) ([2]; retina, SC, 0.1 mg/eye): 28.1 µg·days/g; Plasma concentration ([3]; IVT, all timepoints): < 0.150 ng/mL; Cmax ([3]; posterior eye cup (PEC), sc): 799000 ng/g; Tmax ([3]; posterior eye cup (PEC), sc): 6 h; Cmax ([3]; posterior eye cup (PEC), topical or ocular): 124000 ng/g; Cmax ([3]; vitreous humor, sc): 3670 ng/g; Tmax ([3]; vitreous humor, sc): 168 h; Cmax [3, 12]: 1.28e+06 ng/g; Tmax [3, 12]: 0.08 h; AUC(0-t) ([3]; PEC (posterior eye cup), SC injection): 5208 µg·days/g; AUC(0-t) ([3]; PEC, IVT injection): 471 µg·days/g; Plasma concentration ([3]; SC, all timepoints except 6 hours): < 0.150 ng/mL; AUC(0-t) ([3]; vitreous humor, IVT injection): 6208 µg·days/g; AUC(0-t) ([3]; vitreous humor, SC injection): 19 µg·days/g; concentration at 182 day [4]: 199000 ng/g
